Experimental data reported in patent US11702422B2, “Imidazopyridazines as modulators of IL-17” (Janssen Pharmaceutica NV, priority 2020, dated 2023).

How the values were obtained:
[1] = biological target: IL-17A(FLAG-Tagged): IL-17RA(His-Tagged) (Homo sapiens, UniProt Q16552, K93Q); assay: IL-17A(FLAG-Tagged): IL-17RA(His-Tagged) Binding Disruption Eu-HTRF Assay; conditions: IL-17A/IL-17RA binding disruption, simple average if tested more than once
Method in brief: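 IC50 comes from a one-site competition fit of the HTRF 665/620 nm ratio. Compound dilutions (2-fold, 22 points) were held 1 h rt with FLAG-tagged IL-17A dimer, then His-tagged IL-17RA plus Eu-cryptate anti-FLAG and D2 anti-His antibodies were added for 2 h rt.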

[2] = system: IL-17A-induced G-CSF production in human normal keratinocyte (NHK); assay: NHK Assay: IL-17A-induced G-CSF production in human normal keratinocytes; format: cell-based; conditions: adult normal human keratinocytes, IL-17A 5 ng/mL, 24 h, simple average if tested more than once
Method in brief: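 Titrated compound plus recombinant human IL-17A (pre-incubated 1 h, rt) were applied to adult human keratinocytes at 5 ng/mL cytokine, 0.2% DMSO. Cultures ran 24 h at 37° C, and supernatant G-CSF was measured by HTRF to derive IC50.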

Sequence of UniProt Q16552 (Q16552 with tags, fused parts or gaps K93Q): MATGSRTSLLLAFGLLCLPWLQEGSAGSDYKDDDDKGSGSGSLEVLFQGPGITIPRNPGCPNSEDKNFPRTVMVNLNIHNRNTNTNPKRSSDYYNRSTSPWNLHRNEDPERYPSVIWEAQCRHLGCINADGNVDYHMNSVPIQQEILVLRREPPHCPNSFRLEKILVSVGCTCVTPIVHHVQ

Structure (SMILES) | IC50 [1] [nM] | IC50 [2] [nM] | IC50 ([2]; Homo sapiens, Keratinocyte) [nM]
[2H]C([2H])([2H])C([2H])([2H])n1nccc1C(=O)N[C@H](c1cn2ncc(C(COCC)NC(=O)CC3CC(F)(F)C3)cc2n1)C1CCC(F)(F)CC1 (single isomer, unassigned) [Example 531, N—((S)-(7-((S*)-1-(2-(3,3-Difluorocyclobutyl)acetamido)-2-ethoxyethyl)imidazo[1,2-b]pyridazin-2-yl)(4,4-difluorocyclohexyl)methyl)-1-(ethyl-d5)-1H-pyrazole-5-carboxamide] | 220 | 110 | 
CCc1noc(C)c1C(=O)N[C@H](c1cn2ncc([C@H](NC(=O)CCC(F)(F)F)C3CC3)cc2n1)C1CCC(F)(F)CC1 [Example 82, N—((S)-(7-((R)-Cyclopropyl(4,4,4-trifluorobutanamido)methyl)imidazo[1,2-b]pyridazin-2-yl)(4,4-difluorocyclohexyl)methyl)-3-ethyl-5-methylisoxazole-4-carboxamide] | 3000 |  | > 20000
O=C(CCC(F)(F)F)N[C@@H](c1cnn2cc([C@@H](NC(=O)c3conc3COC(F)F)C3CCC(F)(F)CC3)nc2c1)C1CC1 [Example 237, N—((S)-(7-((R)-Cyclopropyl(4,4,4-trifluorobutanamido)methyl)imidazo[1,2-b]pyridazin-2-yl)(4,4-difluorocyclohexyl)methyl)-3-((difluoromethoxy)methyl)isoxazole-4-carboxamide] | 52 |  | 88
O=C(CCC(F)(F)F)N[C@@H](c1cnn2cc([C@@H](NC(=O)c3ncnn3CC(F)(F)F)C3CCC(F)(F)CC3)nc2c1)C1CC1 [Example 61, N—((S)-(7-((R)-Cyclopropyl(4,4,4-trifluorobutanamido)methyl)imidazo[1,2-b]pyridazin-2-yl)(4,4-difluorocyclohexyl)methyl)-1-(2,2,2-trifluoroethyl)-1H-1,2,4-triazole-5-carboxamide] | 190 |  | 1200
CC(C)(C[C@H](NC(=O)c1nonc1C1CC1)c1cn2ncc([C@H](NC(=O)CC3CC(F)(F)C3)C3CC3)cc2n1)C(F)(F)F [Example 542, 4-Cyclopropyl-N—((S)-1-(7-((R)-cyclopropyl(2-(3,3-difluorocyclobutyl)acetamido)methyl)imidazo[1,2-b]pyridazin-2-yl)-4,4,4-trifluoro-3,3-dimethylbutyl)-1,2,5-oxadiazole-3-carboxamide] | 52 |  | 46
O=C(CCC(F)(F)F)N[C@@H](c1cnn2cc([C@@H](NC(=O)c3conc3CCC(F)(F)F)C3CCC(F)(F)CC3)nc2c1)C1CC1 [Example 77, N—((S)-(7-((R)-Cyclopropyl(4,4,4-trifluorobutanamido)methyl)imidazo[1,2-b]pyridazin-2-yl)(4,4-difluorocyclohexyl)methyl)-3-(3,3,3-trifluoropropyl)isoxazole-4-carboxamide] | 50 |  | 60
Cc1cncc(C(=O)N[C@H](c2cn3ncc([C@H](NC(=O)CCC(F)(F)F)C4CC4)cc3n2)C2CCC(F)(F)CC2)n1 [Example 220, N—((S)-(7-((R)-Cyclopropyl(4,4,4-trifluorobutanamido)methyl)imidazo[1,2-b]pyridazin-2-yl)(4,4-difluorocyclohexyl)methyl)-6-methylpyrazine-2-carboxamide] | 15000 |  | > 20000
Cc1nonc1C(=O)N[C@H](c1cn2ncc([C@H](NC(=O)CCCF)C3CC3)cc2n1)C1CCC(F)(F)CC1 [Example 252, N—((S)-(7-((R)-Cyclopropyl(4-fluorobutanamido)methyl)imidazo[1,2-b]pyridazin-2-yl)(4,4-difluorocyclohexyl)methyl)-4-methyl-1,2,5-oxadiazole-3-carboxamide] | 640 |  | 7700
O=C(CC1CC(F)(F)C1)N[C@@H](c1cnn2cc([C@@H](NC(=O)c3nonc3OCC(F)F)C3CCC(F)(F)CC3)nc2c1)C1CC1 [Example 389, N—((S)-(7-((R)-Cyclopropyl(2-(3,3-difluorocyclobutyl)acetamido)methyl)imidazo[1,2-b]pyridazin-2-yl)(4,4-difluorocyclohexyl)methyl)-4-(2,2-difluoroethoxy)-1,2,5-oxadiazole-3-carboxamide] | 56 |  | 29
CC(CC(=O)N[C@@H](c1cnn2cc([C@@H](NC(=O)c3nonc3C3CC3)C3CCC(F)(F)CC3)nc2c1)C1CC1)C(F)(F)F (single isomer, unassigned) [Example 300, 4-Cyclopropyl-N—((S)-(7-((R)-cyclopropyl((R*)-4,4,4-trifluoro-3-methylbutanamido)methyl)imidazo[1,2-b]pyridazin-2-yl)(4,4-difluorocyclohexyl)methyl)-1,2,5-oxadiazole-3-carboxamide] | 110 | 320 | 
O=C(CCC(F)(F)F)N[C@@H](c1cnn2cc([C@@H](NC(=O)c3cccc(OCC(F)F)c3)C3CCC(F)(F)CC3)nc2c1)C1CC1 [Example 168, N—((S)-(7-((R)-Cyclopropyl(4,4,4-trifluorobutanamido)methyl)imidazo[1,2-b]pyridazin-2-yl)(4,4-difluorocyclohexyl)methyl)-3-(2,2-difluoroethoxy)benzamide] | 38 |  | 190
O=C(CCC(F)(F)F)N[C@@H](c1cnn2cc([C@@H](NC(=O)c3cnnn3CCOC(F)F)C3CCC(F)(F)CC3)nc2c1)C1CC1 [Example 34, N—((S)-(7-((R)-Cyclopropyl(4,4,4-trifluorobutanamido)methyl)imidazo[1,2-b]pyridazin-2-yl)(4,4-difluorocyclohexyl)methyl)-1-(2-(difluoromethoxy)ethyl)-1H-1,2,3-triazole-5-carboxamide] | 180 |  | 64
CC(C)n1nccc1C(=O)N[C@H](c1cn2ncc(C(NC(=O)CC3(C(F)(F)F)CC3)C3(C#N)CC3)cc2n1)C1CCC(F)(F)CC1 (single isomer, unassigned) [Example 428, N—((S)-(7-((S*)-(1-Cyanocyclopropyl)(2-(1-(trifluoromethyl)cyclopropyl)acetamido)methyl)imidazo[1,2-b]pyridazin-2-yl)(4,4-difluorocyclohexyl)methyl)-1-isopropyl-1H-pyrazole-5-carboxamide] | 370 | 120 | 
Cc1cc(C(=O)N[C@H](c2cn3ncc([C@H](NC(=O)CCC(F)(F)F)C4CC4)cc3n2)C2CCC(F)(F)CC2)ncn1 [Example 218, N—((S)-(7-((R)-Cyclopropyl(4,4,4-trifluorobutanamido)methyl)imidazo[1,2-b]pyridazin-2-yl)(4,4-difluorocyclohexyl)methyl)-6-methylpyrimidine-4-carboxamide] | 2000 |  | > 20000
Cc1cnccc1C(=O)N[C@H](c1cn2ncc([C@H](NC(=O)CCC(F)(F)F)C3CC3)cc2n1)C1CCC(F)(F)CC1 [Example 214, N—((S)-(7-((R)-Cyclopropyl(4,4,4-trifluorobutanamido)methyl)imidazo[1,2-b]pyridazin-2-yl)(4,4-difluorocyclohexyl)methyl)-3-methylisonicotinamide] | 2900 |  | > 20000
Cc1nonc1C(=O)N[C@H](c1cn2ncc(C(NC(=O)CC3CC(F)(F)C3)C3CCC3)cc2n1)C1CCC(F)(F)CC1 (single isomer, unassigned) [Example 493, N—((S)-(7-((R*)-Cyclobutyl(2-(3,3-difluorocyclobutyl)acetamido)methyl)imidazo[1,2-b]pyridazin-2-yl)(4,4-difluorocyclohexyl)methyl)-4-methyl-1,2,5-oxadiazole-3-carboxamide] | 79 | 120 | 
CC(C)n1nccc1C(=O)N[C@H](c1cn2ncc([C@H](NC(=O)C[C@H]3C[C@H](F)C3)C3CC3)cc2n1)C1CCC(F)(F)CC1 (single isomer, unassigned) [Example 258] | 130 |  | 46
Cn1nnnc1C(=O)N[C@H](c1cn2ncc([C@H](NC(=O)CCC(F)(F)F)C3CC3)cc2n1)C1CCC(F)(F)CC1 [Example 468, N—((S)-(7-((R)-Cyclopropyl(4,4,4-trifluorobutanamido)methyl)imidazo[1,2-b]pyridazin-2-yl)(4,4-difluorocyclohexyl)methyl)-1-methyl-1H-tetrazole-5-carboxamide] | 750 |  | 1700
CC(F)(F)c1cccc(C(=O)N[C@H](c2cn3ncc([C@H](NC(=O)CCC(F)(F)F)C4CC4)cc3n2)C2CCC(F)(F)CC2)n1 [Example 230, N—((S)-(7-((R)-Cyclopropyl(4,4,4-trifluorobutanamido)methyl)imidazo[1,2-b]pyridazin-2-yl)(4,4-difluorocyclohexyl)methyl)-6-(1,1-difluoroethyl)picolinamide] | 2000 |  | > 20000
O=C(CCC(F)(F)F)NC(c1cnn2cc([C@@H](NC(=O)c3cnn(CC(F)(F)F)n3)C3CCC(F)(F)CC3)nc2c1)C1CC1 (single isomer, unassigned) [Example 27, N—((S)-(7-((R*)-Cyclopropyl(4,4,4-trifluorobutanamido)methyl)imidazo[1,2-b]pyridazin-2-yl)(4,4-difluorocyclohexyl)methyl)-2-(2,2,2-trifluoroethyl)-2H-1,2,3-triazole-4-carboxamide] | 100 |  | 650
O=C(CCC(F)(F)F)N[C@@H](c1cnn2cc([C@@H](NC(=O)c3cccc(C(F)F)n3)C3CCC(F)(F)CC3)nc2c1)C1CC1 [Example 229, N—((S)-(7-((R)-Cyclopropyl(4,4,4-trifluorobutanamido)methyl)imidazo[1,2-b]pyridazin-2-yl)(4,4-difluorocyclohexyl)methyl)-6-(difluoromethyl)picolinamide] | 1200 |  | > 20000
